For test [1], the system named is CD8beta(+)CD8alpha(+) T cells. Description: Long-term culturing of T cells obtained by feeder-free differentiation induction, trypan blue count. It is filed as cell-based, human. The conditions noted are these: 1 μM, FIG. 14(B). The protocol: The possibility of long-term culturing of T-iPS-T cells using berbamine was evaluated. First, T cells were induced from T-iPS cells without using a feeder. For the maintenance of iPS cells, StemFit AK02N medium (Ajinomo) was used for feeder-free iPS cells. The iPS cells were detached from the culture surface coated with iMatrix-511 using a dissociation agent [1× TrypLE Select (Thermo Fisher Scientific) was diluted to 1/2 with PBS, and a 0.5 mol/L EDTA solution (pH 8, Nacalai Tesque) was added thereto to give a final concentration of 0.5× TrypLE Select and 0.75 mM EDTA], and subcultured in a culture medium obtained by adding 10 μM Y-27632 to StemFit AK02N (37° C., 5% CO2). On the following day, the culture medium was replaced with Stemfit AK02N. This operation was repeated once a week to maintain the iPS cells.
Hematopoietic progenitor cells (HPCs) were produced by inducing the differentiation of iPS cells by an embryoid body formation method. The feeder-free iPS cells were detached with 0.5× TrypLE Select, and 0.75 mM EDTA, and then seeded at 2 to 3×10^5 cells/well in a 6-well plate (CORNING) subjected to an ultra-low adhesion treatment. By using Stemfit AK02N medium supplemented with 10 μM Y-27632 (Nacalai Tesque) and 10 μM CHIR99021 (Tocris Bioscience), the cells were cultured under low oxygen conditions (5% 02) (Day 0). […]

A further test deals with naive T cells. The test is described as follows: Proliferation of sorted naive T cells, trypan blue count. It is filed as cell-based, human. The conditions noted are these: 1 μM, naive T cells, 6, 9, 12 and 14 days, FIG. 18C. The text has this:
NPL 4 reports that hierarchy exists in T cells (FIG. 18A). In this Example, a fraction in which berbamine acts in T cells was verified. As a method therefor, PBMCs (CTL, Inc.) derived from a healthy subject was washed with a staining solution (PBS containing 2% FBS), and then stained with CCR7-APC (BioLegend, 353214), CD45RA-BV510 (BioLegend, 304142), CD45RO-APC-Cy7 (BioLegend, 307228), CD95-PC-Cy7 (BioLegend, 305622), CD8β-PE (Beckman, IM2217U), and CD4-BV421 (BioLegend, 317434).
After washing, the cells were resuspended in the staining solution containing PI, and by using BD AriaII Cell Sorter (BD Bioscience), in the CD8β(+) cells, CCR7(+)CD45RA(+)CD95(−)CD45RO(−) was sorted as naive T cells, CCR7(+)CD45RA(+)CD95(+)CD45RO(+) was sorted as stem cell memory T cells, CCR7(+)CD45RA(−)CD45RO(+) was sorted as central memory T cells, and CCR7(−) CD45RA(−)CD45RO(+) was sorted as effector memory T cells.
The respective cells (about 3,000 cells/well) were seeded, and berbamine (BBM) at 1 μM or MilliQ water that is a solvent for the compound as a control was added thereto, and the cells were stimulated with CD3/CD28 Dynabeads (about 9,000 beads/well). The cells were cultured using the same culture medium as in Example 6.
After 6, 9, 12, and 14 days of culturing, the number of viable cells was counted by a trypan blue method. In a statistical analysis, a Student's t-test was used (*: p<0.05).

The values that follow come from patent US12168781B2, “Production method for T cells or NK cells, medium for culturing T cells or NK cells, method for culturing T cells or NK cells, method for maintaining undifferentiated state of undifferentiated T cells, and growth-accelerating agent for T cells or NK cells” (KIRIN HOLDINGS KABUSHIKI KAISHA, priority 2018, dated 2024).

Turning to `COc1cc2c3cc1Oc1c(OC)c(OC)cc4c1[C@@H](Cc1ccc(O)c(c1)Oc1ccc(cc1)C[C@@H]3N(C)CC2)N(C)CC4` [berbamine], the “period for which the cells could be cultured” value in test [1] (restimulated on day 14, 28, 42, MilliQ water control could not be cultured after day 42) worked out at 56 days. Also, the “proliferation of the cells in long-term culturing” value in test [1] (vs MilliQ water) is reported as “enhancement of the proliferation of T-iPS-T cells”. Further, the “number of viable cells compared with MilliQ water” value with naive T cells was “significant enhancement of cell proliferation”.
